Test system: MV-4-11 cells
Assay: Gene expression microarray analysis (Affymetrix PrimeView) and GSEA
Type: cell-based, human
Set-up: RFU PODN (11730768_x_at) / Fold change /veh PODN (11730768_x_at) / RFU LINC00158 (11744669_a_at) / Fold change /veh LINC00158 (11744669_a_at) / RFU DUSP10 (11751237_a_at) / Fold change /veh DUSP10 (11751237_a_at) / RFU ID3 (11757404_x_at) / Fold change /veh ID3 (11757404_x_at) / RFU PLEKHG5 (11737974_s_at) / Fold change /veh PLEKHG5 (11737974_s_at) / RFU LRRC4B (11730491_at) / Fold change /veh LRRC4B (11730491_at) / RFU GIMAP4 (11747438_a_at) / Fold change /veh GIMAP4 (11747438_a_at) / RFU KRT8 (11758183_x_at) / Fold change /veh KRT8 (11758183_x_at) / RFU CNN1 (11734310_a_at) / Fold change /veh CNN1 (11734310_a_at) / RFU VPS37D (11726825_at) / Fold change /veh VPS37D (11726825_at) / RFU C10orf10 (11716522_x_at) / Fold change /veh C10orf10 (11716522_x_at) / RFU KIR2DL2 /// KIR2DL4 /// KIR2DL5A /// KIR2DL5B /// KIR2DS1 /// KIR2DS2 /// KIR2DS3 /// KIR2DS4 /// KIR3DL3 /// KIR3DL3 /// KIR3DS1 (11738374_at) / Fold change /veh KIR2DL2 /// KIR2DL4 /// KIR2DL5A /// KIR2DL5B /// KIR2DS1 /// KIR2DS2 /// KIR2DS3 /// KIR2DS4 /// KIR3DL3 /// KIR3DL3 /// KIR3DS1 (11738374_at) / RFU C1QL1 (11718748_at) / Fold change /veh C1QL1 (11718748_at) / RFU TMPRSS4 (11747572_a_at) / Fold change /veh TMPRSS4 (11747572_a_at) / RFU HAMP (11756126_x_at) / Fold change /veh HAMP (11756126_x_at) / RFU RNFT2 (11725882_a_at) / Fold change /veh RNFT2 (11725882_a_at) / RFU NR4A2 (11747474_a_at) / Fold change /veh NR4A2 (11747474_a_at) / RFU ABCC12 (11746883_a_at) / Fold change /veh ABCC12 (11746883_a_at) / RFU TMEM136 (11760407_x_at) / Fold change /veh TMEM136 (11760407_x_at) / RFU CLDN22 /// WWC2 (11732394_at) / Fold change /veh CLDN22 /// WWC2 (11732394_at) / RFU HLA-DPB1 (11760878_x_at) / Fold change /veh HLA-DPB1 (11760878_x_at) / RFU SPINT1 (11716480_a_at) / Fold change /veh SPINT1 (11716480_a_at) / RFU GAP43 (11754022_s_at) / Fold change /veh GAP43 (11754022_s_at) / RFU A4GNT (11735810_at) / Fold change /veh A4GNT (11735810_at) / RFU PRB3 (11715151_x_at) / Fold change /veh PRB3 (11715151_x_at) / RFU TUBB4B (11761932_at) / Fold change /veh TUBB4B (11761932_at) / RFU CAPN14 (11732068_a_at) / Fold change /veh CAPN14 (11732068_a_at) / RFU TMCC2 (11721928_a_at) / Fold change /veh TMCC2 (11721928_a_at) / RFU IRGQ (11745062_a_at) / Fold change /veh IRGQ (11745062_a_at) / RFU FAM174B (11720279_a_at) / Fold change /veh FAM174B (11720279_a_at) / RFU TMPRSS4 (11748680_a_at) / Fold change /veh TMPRSS4 (11748680_a_at) / RFU FAM212B (11763350_a_at) / Fold change /veh FAM212B (11763350_a_at) / RFU PLEKHG5 (11743358_a_at) / Fold change /veh PLEKHG5 (11743358_a_at) / RFU ZSCAN30 (11745921_a_at) / Fold change /veh ZSCAN30 (11745921_a_at) / RFU CMKLR1 (11741424_a_at) / Fold change /veh CMKLR1 (11741424_a_at) / RFU LOC101060620 /// MAPK8IP1 (11723275_at) / Fold change /veh LOC101060620 /// MAPK8IP1 (11723275_at) / RFU SPTSSB (11747773_x_at) / Fold change /veh SPTSSB (11747773_x_at) / RFU PRSS12 (11739890_at) / Fold change /veh PRSS12 (11739890_at) / RFU BIN1 (11741810_x_at) / Fold change /veh BIN1 (11741810_x_at) / RFU WNT11 (11732464_a_at) / Fold change /veh WNT11 (11732464_a_at) / RFU C10orf10 (11716521_a_at) / Fold change /veh C10orf10 (11716521_a_at) / RFU C5orf56 (11738089_at) / Fold change /veh C5orf56 (11738089_at) / RFU CYB561 (11721691_x_at) / Fold change /veh CYB561 (11721691_x_at) / RFU ANKRD19P (11752326_a_at) / Fold change /veh ANKRD19P (11752326_a_at) / RFU OR2T12 /// OR2T33 /// OR2T8 (11738714_s_at) / Fold change /veh OR2T12 /// OR2T33 /// OR2T8 (11738714_s_at) / RFU VCAN (11748164_a_at) / Fold change /veh VCAN (11748164_a_at) / RFU JSRP1 (11732532_at) / Fold change /veh JSRP1 (11732532_at) / RFU KRTAP10-11 (11738290_x_at) / Fold change /veh KRTAP10-11 (11738290_x_at) / RFU MYO3A (11730013_a_at) / Fold change /veh MYO3A (11730013_a_at) / RFU EBF3 (11725865_a_at) / Fold change /veh EBF3 (11725865_a_at) / RFU CAMK2N1 (11719241_x_at) / Fold change /veh CAMK2N1 (11719241_x_at) / RFU C5orf56 (11738088_a_at) / Fold change /veh C5orf56 (11738088_a_at) / RFU OLFML3 (11715873_a_at) / Fold change /veh OLFML3 (11715873_a_at) / RFU LOC100653217 /// NTM (11731650_a_at) / Fold change /veh LOC100653217 /// NTM (11731650_a_at) / RFU MAPK11 (11762145_a_at) / Fold change /veh MAPK11 (11762145_a_at) / RFU FIZ1 (11724087_x_at) / Fold change /veh FIZ1 (11724087_x_at) / RFU OASL (11726364_x_at) / Fold change /veh OASL (11726364_x_at) / RFU SOX15 (11748057_x_at) / Fold change /veh SOX15 (11748057_x_at) / RFU CD79A (11719716_a_at) / Fold change /veh CD79A (11719716_a_at) / RFU HIST1H1D (11736915_at) / Fold change /veh HIST1H1D (11736915_at) / RFU CASKIN2 (11723855_a_at) / Fold change /veh CASKIN2 (11723855_a_at) / RFU LOC730098 (11760151_x_at) / Fold change /veh LOC730098 (11760151_x_at) / RFU OR4N2 (11742367_at) / Fold change /veh OR4N2 (11742367_at) / RFU PRRT2 (11749266_a_at) / Fold change /veh PRRT2 (11749266_a_at) / RFU SNX32 (11753110_a_at) / Fold change /veh SNX32 (11753110_a_at) / RFU CDHR5 (11726645_a_at) / Fold change /veh CDHR5 (11726645_a_at) / RFU RCAN1 (11760418_a_at) / Fold change /veh RCAN1 (11760418_a_at) / RFU FAM167A (11723789_a_at) / Fold change /veh FAM167A (11723789_a_at) / RFU FAM26E (11764081_at) / Fold change /veh FAM26E (11764081_at) / RFU ISYNA1 (11749810_s_at) / Fold change /veh ISYNA1 (11749810_s_at) / RFU ACY1 (11761880_at) / Fold change /veh ACY1 (11761880_at) / RFU 11764098_at / Fold change /veh 11764098_at / RFU SAMD14 (11745864_x_at) / Fold change /veh SAMD14 (11745864_x_at) / RFU NPB (11741838_a_at) / Fold change /veh NPB (11741838_a_at) / RFU TMPRSS6 (11731388_a_at) / Fold change /veh TMPRSS6 (11731388_a_at) / RFU KRTAP10-2 (11738614_at) / Fold change /veh KRTAP10-2 (11738614_at) / RFU ARHGAP8 /// PRR5-ARHGAP8 (11727945_x_at) / Fold change /veh ARHGAP8 /// PRR5-ARHGAP8 (11727945_x_at) / RFU KRTAP5-7 /// NADSYN1 (11734609_at) / Fold change /veh KRTAP5-7 /// NADSYN1 (11734609_at) / RFU RASL12 (11751679_a_at) / Fold change /veh RASL12 (11751679_a_at) / RFU CDKN2B (11736163_a_at) / Fold change /veh CDKN2B (11736163_a_at) / RFU PRF1 (11729649_at) / Fold change /veh PRF1 (11729649_at) / RFU, ZNF638 /// ZNF638-IT1 / Fold change vs veh, ZNF638 /// ZNF638-IT1 / RFU, PANK3 / Fold change vs veh, PANK3 / RFU, SH3YL1 / Fold change vs veh, SH3YL1 / RFU, ZEB2 / Fold change vs veh, ZEB2 / RFU, NRIP1 / Fold change vs veh, NRIP1 / RFU, PTTG1IP / Fold change vs veh, PTTG1IP / RFU, CAPN2 / Fold change vs veh, CAPN2 / RFU, MED14 / Fold change vs veh, MED14 / RFU, SNORA58 / Fold change vs veh, SNORA58 / RFU, C1orf63 / Fold change vs veh, C1orf63 / RFU, LRRFIP1 / Fold change vs veh, LRRFIP1 / RFU, NDUFAF7 / Fold change vs veh, NDUFAF7 / RFU, SLC12A2 / Fold change vs veh, SLC12A2 / RFU, IBTK / Fold change vs veh, IBTK / RFU, ESF1 / Fold change vs veh, ESF1 / Fold change vs veh, TMEM50B / RFU, TAOK1 / Fold change vs veh, TAOK1 / RFU, ACBD3 / Fold change vs veh, ACBD3 / RFU, TMA16 / Fold change vs veh, TMA16 / RFU, RWDD3 / Fold change vs veh, RWDD3 / RFU, BCAT1 / Fold change vs veh, BCAT1 / RFU, EDEM3 / Fold change vs veh, EDEM3 / RFU, TMEM33 / Fold change vs veh, TMEM33 / RFU, WDR75 / Fold change vs veh, WDR75 / RFU, AHCTF1 / Fold change vs veh, AHCTF1 / RFU, TFRC / Fold change vs veh, TFRC / RFU, ZDHHC17 / Fold change vs veh, ZDHHC17 / RFU, NOM1 / Fold change vs veh, NOM1 / RFU, ARL8B / Fold change vs veh, ARL8B / RFU, ZBTB11 / Fold change vs veh, ZBTB11 / RFU, TAMM41 / Fold change vs veh, TAMM41 / RFU, KIAA1704 /// LOC100996395 / Fold change vs veh, KIAA1704 /// LOC100996395 / RFU, ING1 / Fold change vs veh, ING1 / RFU, TRMT61B / Fold change vs veh, TRMT61B / RFU, FUBP3 / Fold change vs veh, FUBP3 / RFU, TP53 / Fold change vs veh, TP53 / RFU, TNKS2 / Fold change vs veh, TNKS2 / RFU, ZFP14 / Fold change vs veh, ZFP14 / RFU, ACTR2 / Fold change vs veh, ACTR2 / RFU, PPP3R1 / Fold change vs veh, PPP3R1 / RFU, PIK3R1 / Fold change vs veh, PIK3R1 / RFU, HNRNPA1 / Fold change vs veh, HNRNPA1 / RFU, RNF170 / Fold change vs veh, RNF170 / RFU, ZNF28 / Fold change vs veh, ZNF28 / RFU, RNGTT / Fold change vs veh, RNGTT / RFU, OGT / Fold change vs veh, OGT / RFU, BRD1 / Fold change vs veh, BRD1 / RFU, MARS / Fold change vs veh, MARS / RFU, ZNF655 / Fold change vs veh, ZNF655 / RFU, FAHD1 / Fold change vs veh, FAHD1 / RFU, BDP1 / Fold change vs veh, BDP1 / RFU, LRRCC1 / Fold change vs veh, LRRCC1 / RFU, ARID1A / Fold change vs veh, ARID1A / RFU, ZNF146 / Fold change vs veh, ZNF146 / RFU, ZNF330 / Fold change vs veh, ZNF330 / RFU, GPN3 / Fold change vs veh, GPN3 / RFU, C9orf123 / Fold change vs veh, C9orf123 / RFU, N4BP2L2 / Fold change vs veh, N4BP2L2 / RFU, ARFIP1 / Fold change vs veh, ARFIP1 / RFU, FAM179B / Fold change vs veh, FAM179B / RFU, BCL10 / Fold change vs veh, BCL10 / RFU, UHRF1BP1L / Fold change vs veh, UHRF1BP1L / RFU, BET1 / Fold change vs veh, BET1 / RFU, CNOT2 / Fold change vs veh, CNOT2 / RFU, ZNF268 / Fold change vs veh, ZNF268 / Fold change vs veh, ZNF507 / RFU, DGCR2 / Fold change vs veh, DGCR2 / RFU, WDSUB1 / Fold change vs veh, WDSUB1 / Fold change vs veh, HSP90B1 /// MIR3652 / RFU, ADSS / Fold change vs veh, ADSS / RFU, GK / Fold change vs veh, GK / RFU, ZNF148 / Fold change vs veh, ZNF148 / RFU, TAF9 / Fold change vs veh, TAF9 / RFU, SLC1A5 / Fold change vs veh, SLC1A5 / RFU, SLMO2 / Fold change vs veh, SLMO2 / RFU, ABCC4 / Fold change vs veh, ABCC4 / RFU, LOC101060439 /// RAP1B / Fold change vs veh, LOC101060439 /// RAP1B / RFU, RFX7 / Fold change vs veh, RFX7 / RFU, GTPBP10 / Fold change vs veh, GTPBP10 / RFU, CNEP1R1 / Fold change vs veh, CNEP1R1 / RFU, BIVM-ERCC5 /// ERCC5 / Fold change vs veh, BIVM-ERCC5 /// ERCC5 / RFU, ILF3 / Fold change vs veh, ILF3 / RFU 11762660_at / Fold change /veh 11762660_at / RFU VCAN (11757783_s_at) / Fold change /veh VCAN (11757783_s_at) / RFU DDX43 (11728927_at) / Fold change /veh DDX43 (11728927_at) / RFU KRT8 (11758188_x_at) / Fold change /veh KRT8 (11758188_x_at) / RFU NKD1 (11759106_at) / Fold change /veh NKD1 (11759106_at) / RFU SRD5A1 (11742802_a_at) / Fold change /veh SRD5A1 (11742802_a_at) / RFU TPSAB1 /// TPSB2 (11721975_s_at) / Fold change /veh TPSAB1 /// TPSB2 (11721975_s_at) / RFU GSTM3 (11746129_a_at) / Fold change /veh GSTM3 (11746129_a_at) / RFU IL23R (11737362_x_at) / Fold change /veh IL23R (11737362_x_at) / RFU TMEM51 (11727254_a_at) / Fold change /veh TMEM51 (11727254_a_at) / RFU PIWIL2 (11732686_x_at) / Fold change /veh PIWIL2 (11732686_x_at) / RFU ORM1 (11744905_x_at) / Fold change /veh ORM1 (11744905_x_at) / RFU CCDC152 (11743942_at) / Fold change /veh CCDC152 (11743942_at) / RFU ECM1 (11717891_a_at) / Fold change /veh ECM1 (11717891_a_at) / RFU IL23R (11748794_a_at) / Fold change /veh IL23R (11748794_a_at) / RFU TNFAIP8L3 (11732012_x_at) / Fold change /veh TNFAIP8L3 (11732012_x_at) / RFU MBOAT4 (11741988_at) / Fold change /veh MBOAT4 (11741988_at) / RFU 11764193_at / Fold change /veh 11764193_at / RFU TMEM53 (11763286_at) / Fold change /veh TMEM53 (11763286_at) / RFU MAGEB2 (11727129_at) / Fold change /veh MAGEB2 (11727129_at) / RFU TMEM200A (11744735_a_at) / Fold change /veh TMEM200A (11744735_a_at) / RFU CCDC152 (11751479_a_at) / Fold change /veh CCDC152 (11751479_a_at) / RFU FAM211A (11726209_a_at) / Fold change /veh FAM211A (11726209_a_at) / RFU RGS16 (11746705_a_at) / Fold change /veh RGS16 (11746705_a_at) / RFU VCAN (11755009_s_at) / Fold change /veh VCAN (11755009_s_at) / RFU RHOB (11743442_s_at) / Fold change /veh RHOB (11743442_s_at) / RFU RGS16 (11720943_a_at) / Fold change /veh RGS16 (11720943_a_at) / RFU RGS16 (11720944_at) / Fold change /veh RGS16 (11720944_at) / RFU, VPS4B / Fold change vs veh, VPS4B / RFU, CREB1 / Fold change vs veh, CREB1 / RFU, DNAJC13 / Fold change vs veh, DNAJC13 / RFU, GNAQ / Fold change vs veh, GNAQ / RFU, CDK5R1 / Fold change vs veh, CDK5R1 / RFU, ZRANB3 / Fold change vs veh, ZRANB3 / RFU, CUL4A / Fold change vs veh, CUL4A / RFU, CCNY / Fold change vs veh, CCNY / RFU, UFL1 / Fold change vs veh, UFL1 / RFU, COG3 / Fold change vs veh, COG3 / RFU, DIAPH2 / Fold change vs veh, DIAPH2 / RFU, SKA2 / Fold change vs veh, SKA2 / RFU, AFF3 / Fold change vs veh, AFF3 / RFU, LMF1 / Fold change vs veh, LMF1 / RFU, IPO11 / Fold change vs veh, IPO11 / RFU, DFFB / Fold change vs veh, DFFB / RFU, FOXP1 / Fold change vs veh, FOXP1 / RFU, CARD8 / Fold change vs veh, CARD8 / RFU, STRN3 / Fold change vs veh, STRN3 / RFU, ADK / Fold change vs veh, ADK / RFU, RASSF2 / Fold change vs veh, RASSF2 / RFU, WIPF1 / Fold change vs veh, WIPF1 / RFU, LARP1B / Fold change vs veh, LARP1B / RFU, RASA1 / Fold change vs veh, RASA1 / RFU, RB1 / Fold change vs veh, RB1 / RFU, PPFIA1 / Fold change vs veh, PPFIA1 / RFU, MAT2A / Fold change vs veh, MAT2A / RFU, CCT5 / Fold change vs veh, CCT5 / RFU, WDR92 / Fold change vs veh, WDR92 / RFU, CUX1 / Fold change vs veh, CUX1 / RFU, TTC7A / Fold change vs veh, TTC7A / RFU, TMEM135 / Fold change vs veh, TMEM135 / RFU, DEPTOR / Fold change vs veh, DEPTOR / RFU, CPM / Fold change vs veh, CPM / RFU, DNAJB6 / Fold change vs veh, DNAJB6 / RFU, CACNA2D3 / Fold change vs veh, CACNA2D3 / RFU, DTX4 / Fold change vs veh, DTX4 / RFU, TFCP2 / Fold change vs veh, TFCP2 / RFU, GMCL1 /// GMCL1P1 / Fold change vs veh, GMCL1 /// GMCL1P1 / RFU, AEBP2 / Fold change vs veh, AEBP2 / RFU, SNHG1 /// SNORD22 /// SNORD25 /// SNORD26 /// SNORD27 /// SNORD28 /// SNORD29 /// SNORD31 / Fold change vs veh, SNHG1 /// SNORD22 /// SNORD25 /// SNORD26 /// SNORD27 /// SNORD28 /// SNORD29 /// SNORD31 / Fold change (Aza/veh), C12orf56 (ProbeSet 11735607_a_at) / Fold change (ACY-1035/veh), C12orf56 (ProbeSet 11735607_a_at) / Fold change (Aza/veh), FGFR1OP (ProbeSet 11751329_s_at) / Fold change (ACY-1035/veh), FGFR1OP (ProbeSet 11751329_s_at) / Fold change (Aza/veh), VPS36 (ProbeSet 11739960_a_at) / Fold change (ACY-1035/veh), VPS36 (ProbeSet 11739960_a_at) / RFU SYPL1 (11715823_x_at) / Fold change /veh SYPL1 (11715823_x_at) / RFU IGFBP7 (11715501_s_at) / Fold change /veh IGFBP7 (11715501_s_at) / RFU REEP3 (11722064_at) / Fold change /veh REEP3 (11722064_at) / RFU IGLL1 (11728026_x_at) / Fold change /veh IGLL1 (11728026_x_at): dose or concentration left out as unconfirmed
Conditions: ProbeSet 11762504_a_at; LIST D

Nc1ccc(-c2cccs2)cc1NC(=O)c1ccc2c(c1)cc(C1CC1)n2CCN1CCOCC1 [ACY-1035]
Fold change vs veh, ZRANB3: 0.86
